Results as given in PMC9837865 (Pharmacology, biochemistry, and behavior, 2022).
Read-outs that look alike come from different tables or passages of the source.

Assays:
[1] = biological target: T1, hCB2 receptor (Homo sapiens, UniProt P34972); test: Agonist-stimulated [35S]GTPγS binding, hCB2 HEK293 membranes; settings: for greater potency at hCB2 receptors than at hCB1 receptors: [35S]GTPγS potency ratio
[2] = biological target: T1, hCB2 receptor; test: [3H]CP55,940 competition binding at hCB2 in HEK293 cell membranes; settings: for greater affinity at hCB2 receptors than at hCB1: binding affinity ratio hCB2 over hCB1
[3] = tested on: male ICR mice; test: Rectal temperature time course
[4] = biological target: T2, hCB1 receptor (Homo sapiens, UniProt P21554); test: [3H]CP55,940 competition binding at hCB1 in HEK293 cell membranes; settings: for Ki: value in parenthesis
[5] = biological target: T2, hCB1 receptor; test: Agonist-stimulated [35S]GTPγS binding, hCB1 HEK293 membranes
[6] = tested on: male ICR mice; test: Rectal temperature dose-effect; settings: for maximal hypothermia, difference from that produced by Δ9-THC: across the dose range tested
[7] = radiotelemetry, 6-h period; ref Sparkes et al., 2022; cited from earlier work
[8] = [35S]GTPγS Turnover CB2 EC50, value in parenthesis
[9] = CB2 Ki, [3H]CP55,940 displacement, value in parenthesis
[10] = 3 mg/kg i.p., compared to vehicle at same timepoint
[11] = CB1 Ki, [3H]CP55,940 displacement
[12] = 100 mg/kg i.p., compared to vehicle at same timepoint
[13] = 10 mg/kg i.p., compared to vehicle at same timepoint
[14] = [35S]GTPγS Turnover CB2 pEC50, pEC50 ± SEM
[15] = [3H]CP55,940 displacement, pKi ± SEM

T2 sequence (P21554 whole entry): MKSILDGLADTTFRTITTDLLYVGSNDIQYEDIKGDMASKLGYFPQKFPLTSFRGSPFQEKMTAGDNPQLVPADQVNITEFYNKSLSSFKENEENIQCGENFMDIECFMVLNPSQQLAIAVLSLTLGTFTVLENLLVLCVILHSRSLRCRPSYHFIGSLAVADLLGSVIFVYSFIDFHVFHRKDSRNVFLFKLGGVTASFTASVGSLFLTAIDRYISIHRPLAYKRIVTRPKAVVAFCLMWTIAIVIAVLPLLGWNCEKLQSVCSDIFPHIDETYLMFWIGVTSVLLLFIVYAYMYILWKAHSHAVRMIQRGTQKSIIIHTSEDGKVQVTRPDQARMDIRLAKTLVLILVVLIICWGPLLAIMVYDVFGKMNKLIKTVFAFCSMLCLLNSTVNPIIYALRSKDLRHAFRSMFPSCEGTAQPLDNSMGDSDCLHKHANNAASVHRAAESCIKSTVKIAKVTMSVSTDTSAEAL
T1 sequence (P34972 whole entry): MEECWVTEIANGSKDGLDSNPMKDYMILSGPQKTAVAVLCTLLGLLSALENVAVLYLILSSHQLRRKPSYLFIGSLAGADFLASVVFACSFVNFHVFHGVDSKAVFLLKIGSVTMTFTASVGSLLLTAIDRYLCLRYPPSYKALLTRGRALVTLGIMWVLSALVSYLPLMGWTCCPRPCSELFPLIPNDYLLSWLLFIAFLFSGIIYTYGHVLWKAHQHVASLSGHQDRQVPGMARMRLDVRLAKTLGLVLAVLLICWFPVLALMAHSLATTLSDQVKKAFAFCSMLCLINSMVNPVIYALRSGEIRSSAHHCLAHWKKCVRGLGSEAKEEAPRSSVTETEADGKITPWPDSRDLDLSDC

## COC(=O)[C@@H](NC(=O)c1cn(CCCCCF)c2ccccc12)C(C)(C)C [5F-MDMB-PICA, methyl (2S)-2-{[1-(5-fluoropentyl)-1H-indole-3-carbonyl]amino}-3,3-dimethylbutanoate]
[1]
  [35S]GTPγS Turnover CB2 Emax: 189 ± 25.2 3 % stimulation over basal
[1]; [8]
  EC50: 1.65 nM
[2]; [9]
  Ki: 0.437 nM
[3]; [10]
  duration of significant hypothermic effect: 7 h
[4]; [11]
  Ki: 1.25 nM
[5]
  EC50: 5.07 nM
  [35S]GTPγS Turnover CB1 Emax: 380 ± 27.4 ^^ 3 % stimulation over basal

## CCCCCc1cc(O)c2c(c1)OC(C)(C)[C@@H]1CCC(C)=C[C@@H]21 [Δ^9-THC, Δ^9-tetrahydrocannabinol, reference compound]
[6]; i.p., compared to vehicle
  lowest dose that decreased temperature: 30 mg/kg
[3]; 100 mg/kg i.p.
  time of peak hypothermic effect post-injection: 1 to 3 h
[3]; [12]
  duration of significant hypothermic effect: 8 h
[3]; single dose of each compound, as summarised in the discussion
  time of peak hypothermic effects: 2 h

## COC(=O)[C@@H](NC(=O)c1cn(CCCCCF)c2ccccc12)C(C)C [5F-MMB-PICA, methyl (2S)-2-[[1-(5-fluoropentyl)indole-3-carbonyl]amino]-3-methylbutanoate]
[1]
  [35S]GTPγS Turnover CB2 Emax: 77.8 ± 13.3 3 % stimulation over basal
[1]; [8]
  EC50: 8.19 nM
[6]
  maximal hypothermia, difference from that produced by Δ9-THC: ≤ 1.5 °C
[2]; [9]
  Ki: 3.4 nM
[3]; [13]
  duration of significant hypothermic effect: 3 h
[4]; [11]
  Ki: 6.45 nM
[5]
  EC50: 27 nM
  [35S]GTPγS Turnover CB1 Emax: 295 ± 21.2 ^† 3 % stimulation over basal

## COC(=O)C(NC(=O)c1cn(Cc2ccc(F)cc2)c2ccccc12)C(C)C (stereo not drawn) [MMB-FUBICA, methyl 2-(1-(4-fluorobenzyl)-1H-indole-3-carboxamido)-3-methylbutanoate]
[1]
  [35S]GTPγS Turnover CB2 Emax: 52.1 ± 6.73 3 % stimulation over basal
[1]; [8]
  EC50: 22.1 nM
[1]; [14]
  EC50: 22.4 nM
[6]
  maximal hypothermia, difference from that produced by Δ9-THC: ≤ 1.5 °C
[2]; [9]
  Ki: 22.5 nM
[3]; 6 mg/kg i.p.
  duration of significant hypothermic effect: 2 h
[4]; [11]
  Ki: 12 nM
[4]; binding affinity ratio CB1 over CB2
  greater affinity for CB1 than CB2: approximately 2 fold
[5]
  EC50: 59.7 nM
  [35S]GTPγS Turnover CB1 Emax: 278 ± 29.3 ^† 3 % stimulation over basal

## O=C(NC12CC3CC(CC(C3)C1)C2)c1nn(Cc2ccc(F)cc2)c2ccccc12 [FUB-AKB48, N-((3s,5s,7s)-adamantan-1-yl)-1-(4-fluorobenzyl)-1H-indazole-3-carboxamide]
[1]
  [35S]GTPγS Turnover CB2 Emax: 131 ± 16.5 4 % stimulation over basal
  greater potency at hCB2 receptors than at hCB1 receptors: 16 fold
[1]; pEC50 ± SEM
  [35S]GTPγS Turnover CB2 pEC50: 9.37 ± 0.318
[1]; read-out: [35S]GTPγS Turnover CB2 EC50, value in parenthesis
  EC50: 0.424 nM
[6]
  maximal hypothermia, difference from that produced by Δ9-THC: ≤ 1.5 °C
[2]; [15]
  CB2 pKi: 9.08 ± 0.0188
[2]; read-out: CB2 Ki, [3H]CP55,940 displacement, value in parenthesis
  Ki: 0.823 nM
[3]; [13]
  duration of significant hypothermic effect: ≤ 1 h
[4]; [15]
  CB1 pKi: 8.89 ± 0.265
[4]; read-out: CB1 Ki, [3H]CP55,940 displacement
  Ki: 1.3 nM
[5]
  [35S]GTPγS Turnover CB1 Emax: 368 ± 55.5 ^‡ 4 % stimulation over basal
[5]; pEC50 ± SEM
  [35S]GTPγS Turnover CB1 pEC50: 8.16 ± 0.162
[5]; read-out: [35S]GTPγS Turnover CB1 EC50, value in parenthesis
  EC50: 6.94 nM

## C=CCCCn1nc(C(=O)NC(C(=O)OC)C(C)(C)C)c2ccccc21 (stereo not drawn) [MDMB-4en-PINACA, methyl 3,3-dimethyl-2-{[1-(pent-4-en-1-yl)-1H-indazole-3-carbonyl]amino}butanoate]
[1]
  [35S]GTPγS Turnover CB2 Emax: 63.6 ± 9.95 3 % stimulation over basal
[1]; [8]
  EC50: 1.34 nM
[2]; [9]
  Ki: 0.213 nM
[2]
  greater affinity at hCB2 receptors than at hCB1: 7 fold
[3]; [10]
  duration of significant hypothermic effect: 4 h
[4]; [11]
  Ki: 1.4 nM
[5]
  EC50: 3.3 nM
  [35S]GTPγS Turnover CB1 Emax: 304 ± 42.8 ^‡ 3 % stimulation over basal

## CCCCn1nc(C(=O)N[C@@H](Cc2ccccc2)C(N)=O)c2ccccc21 [APP-BINACA, N-[(2S)-1-amino-1-oxo-3-phenylpropan-2-yl]-1-butylindazole-3-carboxamide]
[1]
  [35S]GTPγS Turnover CB2 Emax: 83.2 ± 2.72 3 % stimulation over basal
  greater potency at hCB2 receptors than at hCB1 receptors: 153 fold
[1]; [8]
  EC50: 2.24 nM
[2]; [9]
  Ki: 9.34 nM
[2]
  greater affinity at hCB2 receptors than at hCB1: 12 fold
[3]; [12]
  duration of significant hypothermic effect: 4 h
[4]; [11]
  Ki: 107 nM
[5]
  EC50: 344 nM
  [35S]GTPγS Turnover CB1 Emax: 180 ± 25.1 3 % stimulation over basal
[7]
  hypothermia: failed to produce any hypothermia

## CC1(C)C(C(=O)c2cn(Cc3ccc(F)cc3)c3ccccc23)C1(C)C [FUB-144, (1-(4-fluorobenzyl)-1H-indol-3-yl)(2,2,3,3-tetramethylcyclopropyl)methanone]
[1]
  [35S]GTPγS Turnover CB2 Emax: 194 ± 8.45 3 % stimulation over basal
  greater potency at hCB2 receptors than at hCB1 receptors: 20 fold
[1]; [8]
  EC50: 4.61 nM
[6]
  maximal hypothermia, difference from that produced by Δ9-THC: ≤ 1.5 °C
[2]; [9]
  Ki: 1.19 nM
[2]; CB2 pKi, [3H]CP55,940 displacement, pKi ± SEM
  Ki: 1.17 nM
[2]
  greater affinity at hCB2 receptors than at hCB1: 23 fold
[3]; 20 mg/kg i.p.
  duration of significant hypothermic effect: 1 h
[4]; [11]
  Ki: 27.2 nM
[5]
  EC50: 90.6 nM
  [35S]GTPγS Turnover CB1 Emax: 218 ± 31.5 4 % stimulation over basal

## CCOC(=O)C(NC(=O)c1nn(CCCCCF)c2ccccc12)C(C)(C)C (stereo not drawn) [5F-EDMB-PINACA, ethyl 2-(1-(5-fluoropentyl)-1H-indazole-3-carboxamido)-3,3-dimethylbutanoate]
[1]
  [35S]GTPγS Turnover CB2 Emax: 161 ± 8.36 3 % stimulation over basal
[1]; [8]
  EC50: 0.442 nM
[1]; [14]
  EC50: 0.437 nM
[2]; [9]
  Ki: 0.312 nM
[3]; [10]
  duration of significant hypothermic effect: 3 h
[4]; [11]
  Ki: 0.378 nM
[5]
  EC50: 1.6 nM
  [35S]GTPγS Turnover CB1 Emax: 387 ± 69.0 ^† 3 % stimulation over basal

## C=CCCCn1cc(C(=O)NC(C(=O)OC)C(C)C)c2ccccc21 (stereo not drawn) [MMB-4en-PICA, methyl 3-methyl-2-[(1-pent-4-enylindole-3-carbonyl)amino]butanoate]
[1]
  [35S]GTPγS Turnover CB2 Emax: 77.6 ± 7.17 5 % stimulation over basal
[1]; [8]
  EC50: 12.4 nM
[6]
  maximal hypothermia, difference from that produced by Δ9-THC: ≤ 1.5 °C
[2]; [9]
  Ki: 15.6 nM
[3]; 60 mg/kg i.p.
  duration of significant hypothermic effect: 5 h
[4]; [11]
  Ki: 39 nM
[5]
  EC50: 60.7 nM
  [35S]GTPγS Turnover CB1 Emax: 298 ± 31.9 ^‡ 4 % stimulation over basal
